Read-outs that look alike come from different tables or passages of the source.
Key:
[1] = biological target: T1, F. trinervia PEPC (Flaveria trinervia, UniProt P30694); test: biochemical; format: biochemical
T1 construct: the full-length ppcA gene of PEPC from F. trinervia (EMBL-Bank X61304); made in house; host or cells: Escherichia coli BL21(DE3)
T1 sequence (P30694 1-966): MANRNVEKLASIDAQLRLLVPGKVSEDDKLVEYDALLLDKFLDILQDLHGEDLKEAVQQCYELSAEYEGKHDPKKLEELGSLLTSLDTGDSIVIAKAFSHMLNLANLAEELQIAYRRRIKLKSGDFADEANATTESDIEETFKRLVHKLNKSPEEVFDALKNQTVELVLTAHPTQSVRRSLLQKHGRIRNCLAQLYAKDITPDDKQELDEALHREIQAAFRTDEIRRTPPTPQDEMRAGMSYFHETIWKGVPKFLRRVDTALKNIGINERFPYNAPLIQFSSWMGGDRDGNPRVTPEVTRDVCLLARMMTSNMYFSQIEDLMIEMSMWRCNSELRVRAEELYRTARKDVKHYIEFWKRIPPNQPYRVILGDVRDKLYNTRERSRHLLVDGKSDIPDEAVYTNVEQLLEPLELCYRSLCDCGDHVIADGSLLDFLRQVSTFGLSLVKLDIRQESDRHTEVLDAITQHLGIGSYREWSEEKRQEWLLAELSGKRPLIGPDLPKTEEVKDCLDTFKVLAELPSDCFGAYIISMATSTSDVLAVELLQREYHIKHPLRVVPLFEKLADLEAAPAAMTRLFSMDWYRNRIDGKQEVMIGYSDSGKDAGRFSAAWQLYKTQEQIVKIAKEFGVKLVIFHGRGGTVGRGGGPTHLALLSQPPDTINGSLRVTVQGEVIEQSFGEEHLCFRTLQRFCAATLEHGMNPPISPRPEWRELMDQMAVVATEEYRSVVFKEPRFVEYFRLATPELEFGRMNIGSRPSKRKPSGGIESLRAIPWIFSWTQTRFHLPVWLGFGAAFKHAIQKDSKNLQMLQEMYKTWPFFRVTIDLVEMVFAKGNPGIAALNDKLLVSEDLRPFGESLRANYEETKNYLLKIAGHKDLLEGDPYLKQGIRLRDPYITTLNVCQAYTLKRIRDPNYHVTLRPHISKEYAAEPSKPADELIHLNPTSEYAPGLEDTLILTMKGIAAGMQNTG

[2] = test system: Corynebacterium glutamicum ATCC13032; test: Bacterial growth in microscale cultivation, C. glutamicum; format: cell-based; settings: relative to control; for activity at 4 µM / activity at 40 µM / activity at 400 µM: Corynebacterium glutamicum
Method in brief: (§1)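 Inhibitors in DMSO were added to the medium, at a maximum of 400 μM for trans-chalcone and 100 μM for 2'-hydroxychalcone. Cultures were seeded at OD600 0.5, or 0.25 for B. subtilis, and growth was followed as 620 nm backscatter in a BioLector at 1200 rpm. Final backscatter, growth rate and lag phase were compared with DMSO controls.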

[3] = test system: Escherichia coli K-12 MG1655; test: Bacterial growth in microscale cultivation, E. coli; format: cell-based; settings: relative to control; for activity at 4 µM / activity at 40 µM / activity at 400 µM: Escherichia coli
Method in brief: as §1

[4] = test system: Bacillus subtilis 168; test: Bacterial growth in microscale cultivation, B. subtilis; format: cell-based; settings: for activity at 4 µM / activity at 40 µM / activity at 400 µM / Lag Phase: relative to control; for Influence on bacterial growth: highest concentration tested (10× IC50) if not stated otherwise
Method in brief: as §1

## O=C(/C=C/c1ccccc1)c1ccc(O)cc1O [Compound 4, 2′,4′-Dihydroxychalcone]
[1]; C4 PEPC over C3 isoform
  Selectivity C4/C3: 2.1 fold
[1]; C4 PEPC, read-out: IC50 F. trinervia PEPC
  IC50: 25.2 ± 1.3 µM
[2]; ATCC13032, complex medium, 4 µM, read-out: Final Backscatter
  activity at 4 µM: 101%
[2]; ATCC13032, complex medium, 4 µM, read-out: Growth rate
  activity at 4 µM: 113%
[2]; ATCC13032, complex medium, 40 µM, read-out: Final Backscatter
  activity at 40 µM: 105%
[2]; ATCC13032, complex medium, 40 µM, read-out: Growth rate
  activity at 40 µM: 115%
[2]; ATCC13032, complex medium, 400 µM, read-out: Final Backscatter
  activity at 400 µM: 107%
[2]; ATCC13032, complex medium, 400 µM, read-out: Growth rate
  activity at 400 µM: 91.6%
[2]; ATCC13032, minimal medium, 4 µM, read-out: Final Backscatter
  activity at 4 µM: 102%
[2]; ATCC13032, minimal medium, 4 µM, read-out: Growth rate
  activity at 4 µM: 98.9%
[2]; ATCC13032, minimal medium, 40 µM, read-out: Final Backscatter
  activity at 40 µM: 100%
[2]; ATCC13032, minimal medium, 40 µM, read-out: Growth rate
  activity at 40 µM: 95.5%
[2]; ATCC13032, minimal medium, 400 µM, read-out: Final Backscatter
  activity at 400 µM: 110%
[2]; ATCC13032, minimal medium, 400 µM, read-out: Growth rate
  activity at 400 µM: 65.2%
[2]; complex medium, 4 µM
  Lag Phase: 97,4%
[2]; complex medium, 40 µM
  Lag Phase: 96,2%
[2]; complex medium, 400 µM
  Lag Phase: 116,6%
[2]; minimal medium, 4 µM
  Lag Phase: 98,7%
[2]; minimal medium, 40 µM
  Lag Phase: 100,0%
[2]; minimal medium, 400 µM
  Lag Phase: 169,9%
[3]; MG1655, complex medium, 4 µM, read-out: Final Backscatter
  activity at 4 µM: 101%
[3]; MG1655, complex medium, 4 µM, read-out: Growth rate
  activity at 4 µM: 79.6%
[3]; MG1655, complex medium, 40 µM, read-out: Final Backscatter
  activity at 40 µM: 104%
[3]; MG1655, complex medium, 40 µM, read-out: Growth rate
  activity at 40 µM: 97.2%
[3]; MG1655, complex medium, 400 µM, read-out: Final Backscatter
  activity at 400 µM: 100%
[3]; MG1655, complex medium, 400 µM, read-out: Growth rate
  activity at 400 µM: 89.4%
[3]; MG1655, minimal medium, 4 µM, read-out: Final Backscatter
  activity at 4 µM: 103%
[3]; MG1655, minimal medium, 4 µM, read-out: Growth rate
  activity at 4 µM: 79%
[3]; MG1655, minimal medium, 40 µM, read-out: Final Backscatter
  activity at 40 µM: 99.3%
[3]; MG1655, minimal medium, 40 µM, read-out: Growth rate
  activity at 40 µM: 77.8%
[3]; MG1655, minimal medium, 400 µM, read-out: Final Backscatter
  activity at 400 µM: 102%
[3]; MG1655, minimal medium, 400 µM, read-out: Growth rate
  activity at 400 µM: 76.5%
[3]; complex medium, 4 µM
  Lag Phase: 102,2%
[3]; complex medium, 40 µM
  Lag Phase: 101,8%
[3]; complex medium, 400 µM
  Lag Phase: 101,5%
[3]; minimal medium, 4 µM
  Lag Phase: 100,7%
[3]; minimal medium, 40 µM
  Lag Phase: 99,3%
[3]; minimal medium, 400 µM
  Lag Phase: 101,1%
[4]; Bacillus subtilis, 168, complex medium, 4 µM, read-out: Final Backscatter
  activity at 4 µM: 92.2%
[4]; Bacillus subtilis, 168, complex medium, 4 µM, read-out: Growth rate
  activity at 4 µM: 128%
[4]; Bacillus subtilis, 168, complex medium, 40 µM, read-out: Final Backscatter
  activity at 40 µM: 94.3%
[4]; Bacillus subtilis, 168, complex medium, 40 µM, read-out: Growth rate
  activity at 40 µM: 97.4%
[4]; Bacillus subtilis, 168, complex medium, 400 µM, read-out: Final Backscatter
  activity at 400 µM: 81.5%
[4]; Bacillus subtilis, 168, complex medium, 400 µM, read-out: Growth rate
  activity at 400 µM: 92.7%
[4]; Bacillus subtilis, 168, minimal medium, 4 µM, read-out: Final Backscatter
  activity at 4 µM: 96.6%
[4]; Bacillus subtilis, 168, minimal medium, 4 µM, read-out: Growth rate
  activity at 4 µM: 91.5%
[4]; Bacillus subtilis, 168, minimal medium, 40 µM, read-out: Final Backscatter
  activity at 40 µM: 95.7%
[4]; Bacillus subtilis, 168, minimal medium, 40 µM, read-out: Growth rate
  activity at 40 µM: 108%
[4]; Bacillus subtilis, 168, minimal medium, 400 µM, read-out: Final Backscatter
  activity at 400 µM: 77.3%
[4]; Bacillus subtilis, 168, minimal medium, 400 µM, read-out: Growth rate
  activity at 400 µM: 75.2%
[4]; Complex medium
  Influence on bacterial growth: fbs↓ lag↑
[4]; Minimal medium
  Influence on bacterial growth: fbs↓, lag↑
[4]; complex medium, 4 µM
  Lag Phase: 107,7%
[4]; complex medium, 40 µM
  Lag Phase: 107,7%
[4]; complex medium, 400 µM
  Lag Phase: 166,5%
[4]; minimal medium, 4 µM
  Lag Phase: 97,7%
[4]; minimal medium, 40 µM
  Lag Phase: 100,0%
[4]; minimal medium, 400 µM
  Lag Phase: 129,1%

Source: publication PMC4893628, “Chalcone-based Selective Inhibitors of a C4 Plant Key Enzyme as Novel Potential Herbicides” (Scientific Reports, 2016)
